Consider one compound from ChEMBL document CHEMBL5500426, “Directly Suppressing MYC Function with Novel Alkynyl-Substituted Phenylpyrazole Derivatives that Induce Protein Degradation and Perturb MYC/MAX Interaction” (J Med Chem, 2024).

Data set [1] is described as follows: AUC (0 to t) in Sprague-Dawley rat at 2 mg/kg,iv administration by LC-MS/MS analysis. Format: ADME, organism-based. The conditions noted are these: in vivo.
The nature of data set [2]: Toxicity in BALB/C mouse xenografted with human PC-3 cells assessed as histopathological change in heart at 50 to 100 mg/kg,ip administrated daily for 21 consecutive days by hematoxylin and eosin staining based microscopic analysis. The class given is organism-based. The conditions noted are these: in vivo, dose 50-100 mg/kg. (A xenograft is tissue or cells of one species grown in another, often human tumour cells in immunodeficient mice.)

Data set [3] deals with Myc proto-oncogene protein (Homo sapiens) (UniProt P01106). Briefly: Inhibition of MYC in human PC-3 cells assessed as downregulation of MYC expression incubated for 24 hrs by Western blotting analysis. Format: cell-based. (A western blot detects proteins with antibodies after separation by electrophoresis.)
Data set [4] is described as follows: Toxicity in BALB/C mouse xenografted with human PC-3 cells assessed as histopathological change in kidney at 50 to 100 mg/kg,ip administrated daily for 21 consecutive days by hematoxylin and eosin staining based microscopic analysis. The class given is organism-based. The conditions noted are these: in vivo, dose 50-100 mg/kg.
Data set [5] can be described thus: Cytotoxicity against human HUVEC cells assessed as inhibition of cell growth incubated for 72 hrs by MTT assay. Format: toxicity, cell-based.
Data set [6] concerns PC-3. The data set can be described thus: Antitumor activity against human PC-3 cells xenografted in BALB/C mouse assessed as reduction in tumor volume at ip administrated daily for 21 consecutive days. The class given is functional, organism-based.
A short description of data set [7]: AUC (0 to t) in Sprague-Dawley rat at 10 mg/kg,ip administration by LC-MS/MS analysis. The class given is ADME, organism-based. The conditions noted are these: in vivo.
Data set [8] concerns the target T1, c-Myc/c-Max (Homo sapiens) (UniProt P01106+P61244). Briefly: Inhibition of MYC/MAX protein-protein interaction in human PC-3 cells at 10 uM incubated for 1 hr by Co-immunoprecipitation based immunoblotting analysis. Format: cell-based.
The subject of data set [9] is PC-3. The data set can be described thus: Antiproliferative activity against human PC-3 cells assessed as inhibition of cell growth incubated for 72 hrs by MTT assay. Format: functional, cell-based. The conditions noted are these: PC-3, 72 h. (In general: Tetrazolium dyes change colour on reduction, which living cells bring about.)
For data set [10], the target named is T1, c-Myc/c-Max (Homo sapiens). Briefly: Inhibition of MYC/MAX protein-protein interaction in human PC-3 cells at 1 uM incubated for 30 mins. The class given is cell-based.
Data set [11] can be described thus: Toxicity in BALB/C mouse xenografted with human PC-3 cells assessed as histopathological change in liver at 50 to 100 mg/kg,ip administrated daily for 21 consecutive days by hematoxylin and eosin staining based microscopic analysis. The conditions noted are these: in vivo, dose 50-100 mg/kg. The class given is organism-based.
The nature of data set [12]: Toxicity in FVB mouse implanted with mouse Myc-CaP cells assessed as histopathological change in heart at 10 to 50 mg/kg,ip administrated daily for 14 consecutive days by hematoxylin and eosin staining based microscopic analysis. The conditions noted are these: in vivo, dose 10-50 mg/kg. Format: organism-based.
Data set [13] relates to PC-3. The data set can be described thus: Antitumor activity against human PC-3 cells xenografted in BALB/C mouse assessed as reduction in tumor weight at ip administrated daily for 21 consecutive days. The class given is functional, organism-based.
Data set [14] relates to PC-3. Briefly: Antitumor activity against human PC-3 cells xenografted in BALB/C mouse assessed as tumor growth inhibition at 100 mg/kg,ip administrated daily for 21 consecutive days relative to control. Format: functional. The conditions noted are these: read-out: TGI.

Active and inactive are the calls of the source. The calls are words filed in the database; no cut-off is given here.

T1 sequence (P01106 whole entry): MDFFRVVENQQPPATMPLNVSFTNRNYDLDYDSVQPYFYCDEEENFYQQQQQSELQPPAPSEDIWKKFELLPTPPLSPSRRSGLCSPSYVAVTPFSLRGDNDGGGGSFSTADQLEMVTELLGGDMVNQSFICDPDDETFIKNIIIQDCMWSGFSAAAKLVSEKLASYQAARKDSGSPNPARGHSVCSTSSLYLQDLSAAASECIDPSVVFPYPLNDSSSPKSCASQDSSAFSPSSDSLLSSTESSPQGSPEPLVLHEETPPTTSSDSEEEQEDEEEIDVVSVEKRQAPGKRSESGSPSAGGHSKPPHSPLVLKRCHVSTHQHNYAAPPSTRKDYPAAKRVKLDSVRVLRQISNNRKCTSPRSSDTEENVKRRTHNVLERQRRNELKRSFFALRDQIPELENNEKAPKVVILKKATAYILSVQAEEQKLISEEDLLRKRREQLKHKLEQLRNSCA
T1 sequence (P61244 2-160 partner limits assumed): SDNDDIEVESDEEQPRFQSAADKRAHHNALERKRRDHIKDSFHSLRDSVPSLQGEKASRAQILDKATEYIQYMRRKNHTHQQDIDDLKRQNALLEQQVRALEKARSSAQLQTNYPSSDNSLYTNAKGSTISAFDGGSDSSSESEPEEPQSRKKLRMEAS
Sequence of Myc proto-oncogene protein (Homo sapiens) (P01106 whole entry): as the sequence (P01106 whole entry) above

For orientation: AUC(0-t) means exposure summed from dosing to a finite time, without extrapolation to infinity. Lower therefore signals less exposure. Broadly, the IC50 is the concentration that inhibits the measured activity by half. As to `Oc1c(-c2cc(C(F)(F)F)n[nH]2)ccc(C#CCCN2CCOCC2)c1-c1ccc(Cl)c(C(F)(F)F)c1`, the AUC(0-t) was 1400 ng·h/mL in data set [1] and 2220 ng·h/mL in [7]. For the same compound, the Activity result in data set [2] was “Non-Toxic”; in data set [4], “Non-Toxic”; in the data set on PC-3 [6], “Dose-Dependent Effect”; in data set [11], “Non-Toxic”; in [12], “Non-Toxic”; with PC-3 [13], “Dose-Dependent Effect”. Further, the inhibition entry in data set [3] is “Dose-Dependent Effect”. Further, in [5], the IC50 at 72 h came to 16.6 µM. For the same compound, the inhibition result in [8] and in data set [10] was “Active” each time. Further, the IC50 in the data set on PC-3 [9] is 1.27 µM. Moreover, the inhibition in vivo at 100 mg/kg in the data set with PC-3 [14] is 79%.
